In experiment [1] the target is PDK1 (Homo sapiens (Human), UniProt O15530). Nature of the experiment: PDK1 kinase assay (coupled PDK1/AKT/FAM-crosstide assay, IMAP fluorescence polarization). Format: biochemical. The method, boiled down:
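Inhibition is derived by 4-parameter fitting of ΔmP from an IMAP fluorescence polarization read of FAM-crosstide (100 nM) phosphorylation. The cascade ran 30 min at 25 °C with 40 μM ATP, using insect-cell GST-PDK1 51-359 (0.75 nM) driving 10 nM unphosphorylated AKT2 140-467-PIFtide fusion.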
A general note: Fluorescence polarisation rises when a labelled molecule tumbles more slowly, as on binding a larger partner.

Experiment [2] deals with phospho-akt (Thr308) in PC-3 cells. Briefly: Inhibition of phospho-akt (Thr308) in PC-3 cells, MSD phospho-akt 308 ELISA kit. Format: cell-based. As to conditions: Homo sapiens, 2 hours, no serum, read-out: EC50. The essentials: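 PC-3 cells were seeded overnight in growth medium with 10% FBS, then exposed to compound serially diluted threefold in serum-free medium for 2 hours. Lysates were captured overnight at 4 degrees on MSD plates and phospho-Akt Thr308 was detected electrochemiluminescently, against DMSO high and 5 μM wortmannin low controls.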

Setting [3] is: inhibition of phospo-PDK1 in vitro.
[4] abbreviates: inhibition of P308 Akt in PC-3 cells, MSD.
Where [5] appears, read: inhibition of P308 Akt in PC-3 cells using MSD.

SMILES strings stand for the structures. Structures can show the parent of a compound that is named as a salt. Where two headings read alike, the source gives them in different places.

From patent US10030016B2 (Sunesis Pharmaceuticals, Inc., priority 2009, dated 2018) come the findings set out here.

PDK1, sequence (O15530 51-359): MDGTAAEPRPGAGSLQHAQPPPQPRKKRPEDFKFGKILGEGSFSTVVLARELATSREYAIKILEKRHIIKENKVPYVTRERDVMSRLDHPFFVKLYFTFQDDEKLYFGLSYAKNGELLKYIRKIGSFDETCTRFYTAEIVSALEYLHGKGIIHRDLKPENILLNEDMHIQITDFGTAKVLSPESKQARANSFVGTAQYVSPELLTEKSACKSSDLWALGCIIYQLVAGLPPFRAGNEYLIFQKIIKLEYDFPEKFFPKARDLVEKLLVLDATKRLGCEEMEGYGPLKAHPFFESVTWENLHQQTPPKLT

In general, IC50 refers to the concentration that inhibits the measured activity by half. A low value points to greater potency. The term EC50 denotes the concentration giving half of the maximal effect. In the case of `Nc1ncnc2ccc(-c3ccc(CNc4ncccc4C(=O)N4CCc5ccccc5C4)s3)cc12` [Example 3.34, 2-({[5-(4-aminoquinazolin-6-yl)thiophen-2-yl]methyl}amino)-pyridin-3-yl](3,4-dihydroiso-quinolin-2(1H)-yl)methanone (TFA salt)], the IC50 in experiment [1] (setting [3]) was over 5000 nM. For the same compound, the EC50 in experiment [2] (setting [4]) is 1000 to 10000 nM.

In experiment [1] (inhibition of PDK1 in vitro), `C[C@H](NC(=O)c1cc(C#N)cnc1NCc1ccc(-c2ccc(NCCN3CCOCC3)nc2)cc1)c1ccc(F)cc1` [Example 223, 5-Cyano-N-[(S)-1-(4-fluoro-phenyl)-ethyl]-2-{4-[6-(2-morpholin-4-yl-ethylamino)-pyridin-3-yl]-benzylamino}-nicotinamide] displayed an IC50 of over 5000 nM. Also, the EC50 in experiment [2] (setting [5]) is over 10000 nM.

In experiment [1] (inhibition of PDK1 in vitro), `C[C@H](NC(=O)c1cc(C#N)cnc1NCc1ccc(-c2cnc(NCCO)cn2)cc1)c1ccc(F)cc1` [Example 227, 5-Cyano-N-[(S)-1-(4-fluoro-phenyl)-ethyl]-2-{4-[5-(2-hydroxy-ethylamino)-pyrazin-2-yl]-benzylamino}-nicotinamide] showed an IC50 of 100 to 1000 nM. Moreover, the EC50 in experiment [2] (setting [5]) lay in the range of 1000 to 10000 nM.

In experiment [1] (inhibition of PDK1 in vitro), `C[C@@H](NC(=O)c1nc(C#N)cnc1NCc1ccc(-c2cnc3[nH]nc(N)c3c2)cc1)c1ccc(F)c(F)c1` [Example 417, (R)-3-(4-(3-amino-1H-pyrazolo[3,4-b]pyridin-5-yl)benzylamino)-6-cyano-N-(1-(3,4-difluorophenyl)ethyl) pyrazine-2-carboxamide] yielded an IC50 of 100 to 1000 nM. Moreover, in experiment [2] (setting [5]), the EC50 is 1000 to 10000 nM.

The compound `O=C1Nc2cc(OCCNc3ncccc3C(=O)NCc3ccc(F)c(F)c3)ccc2/C1=C/c1cnc[nH]1` [Example 22, (Z)-2-(2-(3-((1H-imidazol-5-yl)methylene)-2-oxoindolin-6-yloxy)ethylamino)-N-(3,4-difluorobenzyl)nicotinamide] displayed an IC50 in experiment [1] (setting [3]) of under 100 nM. Also, the EC50 in experiment [2] (setting [4]) is under 1000 nM.

As to `Nc1ncnc2ccc(-c3ccc(CNc4nc5c(cc4C(=O)NCc4ccc(F)c(F)c4)CCC5)s3)cc12` [Ex. 8.15.1, 2-({[5-(4-aminoquinazolin-6-yl)thiophen-2-yl]methyl}amino)-N-(3,4-difluorobenzyl)-6,7-dihydro-5H-cyclopenta [b]pyridine-3-carboxamide], the half-maximal inhibitory concentration (IC50) in experiment [1] (setting [3]) lay in the range of 100 to 1000 nM. Besides, the EC50 in experiment [2] (setting [4]) was 1000 to 10000 nM.

The compound `Nc1n[nH]c2ncc(-c3ccc(CNc4ncc(C(F)(F)F)cc4C(=O)Nc4ccc(Cl)cc4)cc3)cc12` [Example 304, 2-(4-(3-amino-1H-pyrazolo [3,4-b]pyridin-5-yl)benzylamino)-N-(4-chlorophenyl)-5-(trifluoromethyl)nicotinamide] had an IC50 in experiment [1] (inhibition of PDK1 in vitro) of under 100 nM. Moreover, the EC50 in experiment [2] (setting [5]) is under 1000 nM.

Regarding `C[C@H](NC(=O)c1cc(C#N)cnc1NCc1ccc(-c2cnc3[nH]nc(CN(C)C)c3c2)cc1)c1ccc(F)cc1` [Example 151, (S)-5-cyano-2-(4-(3-((dimethylamino)methyl)-1H-pyrazolo[3,4-b]pyridin-5-yl)benzyl-amino)-N-(1-(4-fluorophenyl)ethyl) nicotinamide], the IC50 in experiment [1] (inhibition of PDK1 in vitro) is under 100 nM. In addition, the EC50 in experiment [2] (setting [5]) is over 10000 nM.

`Nc1ncnc2ccc(-c3nc(CNc4ncccc4C(=O)NCc4ccc(F)c(F)c4)cs3)cc12` [Ex. 6.8, 2-({[2-(4-aminoquinazolin-6-yl)-1,3-thiazol-4-yl]methyl}amino)-N-(3,4-difluoro-benzyl) pyridine-3-carboxamide]: the half-maximal inhibitory concentration (IC50) in experiment [1] (setting [3]) was under 100 nM. Also, the EC50 in experiment [2] (setting [4]) was over 10000 nM.

Regarding `C[C@H](NC(=O)c1cc(C#N)cnc1NCc1ccc(-c2cnc(N)c(N)c2)cc1)c1ccc(F)cc1` [Example 102, (S)-5-cyano-2-(4-(5,6-diaminopyridin-3-yl)benzylamino)-N-(1-(4-fluorophenyl)ethyl) nicotinamide], the IC50 in experiment [1] (inhibition of PDK1 in vitro) was under 100 nM. In addition, the EC50 in experiment [2] (setting [5]) lay in the range of 1000 to 10000 nM.

`C[C@H](NC(=O)c1nc(C#N)cnc1NCc1ccc(-c2cnc3[nH]c(=O)[nH]c3c2)cc1)c1ccc(F)c(F)c1` [Example 363, (S)-6-cyano-N-(1-(3,4-difluorophenyl)ethyl)-3-(4-(2-oxo-2,3-dihydro-1H-imidazo[4,5-b]pyridin-6-yl)benzylamino)-pyrazine-2-carboxamide] showed an IC50 in experiment [1] (inhibition of PDK1 in vitro) of under 100 nM. In experiment [2] (setting [5]), the EC50 was under 1000 nM.

As for `O=C(NCc1ccc(C(F)(F)F)cc1)c1cccnc1NCc1ccc(-c2c[nH]c3ncccc23)s1` [Example 1.18], the IC50 in experiment [1] (setting [3]) lay in the range of 1000 to 5000 nM. The EC50 in experiment [2] (setting [4]) was over 10000 nM.

In experiment [1] (setting [3]), `Nc1ncnc2ccc(-c3ccc(CNc4ncccc4C(=O)Nc4ccc(Cl)cc4)s3)cc12` [Example 3.48, 2-({[5-(4-aminoquinazolin-6-yl)thiophen-2-yl]methyl}amino)-N-(4-chlorophenyl)pyridine-3-carboxamide (TFA salt)] showed an IC50 of 100 to 1000 nM. Moreover, in experiment [2] (setting [4]), the EC50 was over 10000 nM.

On to `Nc1cnc(-c2ccc(CNc3ncc(C(F)(F)F)cc3C(=O)NCc3ccc(F)c(F)c3)cc2)cn1` [Example 124, 2-(4-(5-aminopyrazin-2-yl)benzylamino)-N-(3,4-difluorobenzyl)-5-(trifluoromethyl) nicotinamide], for which the IC50 in experiment [1] (inhibition of PDK1 in vitro) was under 100 nM. Further, the EC50 in experiment [2] (setting [5]) is under 1000 nM.

Consider `Nc1ncc(-c2ccc(CNc3ncc(C(F)(F)F)cc3C(=O)Nc3ccc(F)cc3)cc2)nc1C(=O)N1CCNCC1` [Example 220, 2-{4-[5-Amino-6-(piperazine-1-carbonyl)-pyrazin-2-yl]-benzylamino}-N-(4-fluoro-phenyl)-5-trifluoromethyl-nicotinamide], for which the 50% inhibitory concentration (IC50) in experiment [1] (inhibition of PDK1 in vitro) was under 100 nM. Besides, the EC50 in experiment [2] (setting [5]) lay in the range of 1000 to 10000 nM.

In experiment [1] (setting [3]), `Nc1ncnc2ccc(-c3ccc(CNc4nccc5c4C(=O)N(Cc4ccc(F)c(F)c4)CC5)s3)cc12` [Ex. 7.18, 8-({[5-(4-aminoquinazolin-6-yl)thiophen-2-yl]methyl}amino)-2-(3,4-difluorobenzyl)-3,4-dihydro-2,7-naphthyridin-1(2H)-one] gave an IC50 of under 100 nM. The concentration for a half-maximal effect (EC50) in experiment [2] (setting [4]) is under 1000 nM.

As to `C[C@H](NC(=O)c1cc(C#N)cnc1NCc1ccc(-c2cnc(N)c(CO)n2)cc1)c1ccc(F)cc1` [Example 240, (S)-2-(4-(5-amino-6-(hydroxymethyl)pyrazin-2-yl)benzylamino)-5-cyano-N-(1-(4-fluorophenyl)ethyl)nicotinamide], in experiment [1] (inhibition of PDK1 in vitro), the IC50 was under 100 nM. Further, in experiment [2] (setting [5]), the EC50 is under 1000 nM.

For `N#Cc1cnc(NCc2ccc(-c3cnc4[nH]nc(N)c4c3)cc2)c(C(=O)NCc2cncc(F)c2)n1` [Example 26, 3-(4-(3-amino-1H-pyrazolo[3,4-b]pyridin-5-yl)benzylamino)-6-cyano-N-((5-fluoropyridin-3-yl)methyl)pyrazine-2-carboxamide], the IC50 in experiment [1] (setting [3]) is under 100 nM. The EC50 in experiment [2] (setting [4]) is under 1000 nM.

In experiment [1] (inhibition of PDK1 in vitro), `C[C@H](NC(=O)c1cc(C(F)(F)F)cnc1NCc1ccc(-c2cnc(N)cn2)cc1)c1ccc(F)c(F)c1` [Example 382, (S)-2-(4-(5-aminopyrazin-2-yl)benzylamino)-N-(1-(3,4-difluorophenyl)ethyl)-5-(trifluoromethyl)nicotinamide] gave an IC50 of under 100 nM. The EC50 in experiment [2] (setting [5]) was under 1000 nM.

With `C[C@H](NC(=O)c1cccnc1NCc1ccc(-c2ccc3ncnc(NCCN)c3c2)s1)c1ccc(F)cc1` [Example 2.15, (S)-2-(((5-(4-(2-aminoethylamino)quinazolin-6-yl)thiophen-2-yl)methyl)amino)-N-(1-(4-fluorophenyl)ethyl)nicotinamide], the IC50 in experiment [1] (setting [3]) is 100 to 1000 nM. Further, in experiment [2] (setting [4]), the EC50 fell in the range of 1000 to 10000 nM.

In experiment [1] (setting [3]), `Nc1ncnc2ccc(-c3ccc(CNc4ncc(S(=O)(=O)N5CCOCC5)cc4C(=O)NCc4ccc(F)c(F)c4)s3)cc12` [Example 8.7.12, 2-(((5-(4-aminoquinazolin-6-yl)thiophen-2-yl)methyl)amino)-N-(3,4-difluorobenzyl)-5-(morpholinosulfonyl) nicotinamide] registered an IC50 of 100 to 1000 nM. Also, in experiment [2] (setting [4]), the EC50 was under 1000 nM.

In turn, `Nc1n[nH]c2ncc(-c3ccc(CNc4ncc(C(F)(F)F)cc4C(=O)Nc4ccc(F)nc4)cc3)cc12` [Example 267, 2-(4-(3-amino-1H-pyrazolo [3,4-b]pyridin-5-yl)benzylamino)-N-(6-fluoropyridin-3-yl)-5-(trifluoromethyl) nicotinamide] yielded a half-inhibitory concentration (IC50) in experiment [1] (inhibition of PDK1 in vitro) of under 100 nM. In experiment [2] (setting [5]), the EC50 was under 1000 nM.

In turn, `Nc1ccc(-c2ccc(CNc3ncccc3C(=O)Nc3ccc(F)cc3)cc2)cn1` [Example 375, 2-(4-(6-aminopyridin-3-yl)benzylamino)-N-(4-fluorophenyl)nicotinamide] showed an IC50 in experiment [1] (inhibition of PDK1 in vitro) of 1000 to 5000 nM. Besides, the EC50 in experiment [2] (setting [5]) fell in the range of 1000 to 10000 nM.

`C[C@H](NC(=O)c1nc(C#N)cnc1NCc1ccc(-c2cn(CCN(C)C)c3ncnc(N)c23)cc1)c1ccc(F)c(F)c1` [Example 398, (S)-3-(4-(4-amino-7-(2-(dimethylamino)ethyl)-7H-pyrrolo[2,3-d]pyrimidin-5-yl)benzylamino)-6-cyano-N-(1-(3,4-difluorophenyl)ethyl)pyrazine-2-carboxamide]: in experiment [1] (inhibition of PDK1 in vitro), the IC50 was under 100 nM. For the same compound, in experiment [2] (setting [5]), the EC50 lay in the range of 1000 to 10000 nM.

In experiment [1] (inhibition of PDK1 in vitro), `Nc1n[nH]c2ncc(-c3ccc(CNc4ncc(C(F)(F)F)cc4C(=O)NC4CCC(F)(F)CC4)cc3)cc12` [Example 284, 2-(4-(3-amino-1H-pyrazolo [3,4-b]pyridin-5-yl)benzylamino)-N-(4,4-difluorocyclohexyl)-5-(trifluoromethyl)nicotinamide] displayed an IC50 of over 5000 nM. Further, the EC50 in experiment [2] (setting [5]) lay in the range of 1000 to 10000 nM.

`Nc1n[nH]c2ncc(-c3ccc(CNc4ncc(C(F)(F)F)cc4C(=O)NCC4CCOC4)cc3)cc12` (stereo not shown) [Example 268, 2-(4-(3-amino-1H-pyrazolo [3,4-b]pyridin-5-yl)benzylamino)-N-((tetrahydro-furan-3-yl)methyl)-5-(trifluoromethyl) nicotinamide] gave an IC50 in experiment [1] (inhibition of PDK1 in vitro) of 100 to 1000 nM. The EC50 in experiment [2] (setting [5]) is over 10000 nM.
